From ChEMBL document CHEMBL1137545, “Antiproliferative activities of a library of hybrids between indanones and HDAC inhibitor SAHA and MS-275 analogues” (Bioorg Med Chem Lett, 2007) come the findings set out here.

The source made the active and inactive calls. No cut-off for these calls is given here.

Test system in the first assay: not listed separately
Put plainly: Antiproliferative activity against H661 cells after 48 hrs. The format is functional, cell-based. Conditions: Homo sapiens, NCI-H661, 48 h.
By IC50 is commonly meant the concentration at which inhibition is half-maximal. Turning to `CC1(CCCCCCC(=O)NO)Cc2ccccc2C1=O` (centres undefined), 20 µM corresponded to half-maximal inhibition (IC50). On the same count and under the same terms, for `CC(/C=C/C(=O)NO)=C\[C@@H](C)C(=O)c1ccc(N(C)C)cc1` [TRICHOSTATIN] the value was 0.085 µM; for `CC1(CCCCC(=O)NO)Cc2ccccc2C1=O` (centres undefined), over 25 µM.

The subject of another assay is NCI-H661. Put plainly: Antiproliferative activity against H661 cells at 25 uM after 48 hrs. In kind it is functional, cell-based. Conditions: Homo sapiens.
Consider `CC1(Cc2cccc(C(=O)NO)c2)Cc2ccccc2C1=O` (centres undefined), for which the outcome was inactive.

Turning to `CC1(Cc2nc(C(=O)NO)cs2)Cc2ccccc2C1=O` (centres undefined), the outcome was inactive. Take `CC1(Cc2nc(C(=O)Nc3ccccc3N)cs2)Cc2ccccc2C1=O` (centres undefined): the outcome was inactive.

Turning to `CC1(Cc2cccc(C(=O)Nc3ccccc3N)c2)Cc2ccccc2C1=O` (centres undefined), the outcome was inactive. Consider `CN(C)c1ccc2c(c1)CC(C)(CCCCC(=O)NO)C2=O` (centres undefined), for which the result was inactive.

In the case of `CC1(CCCCCC(=O)NO)Cc2ccccc2C1=O` (centres undefined), the outcome was inactive.
